According to patent US10183011B2, “Anti-depression compounds” (Board of Regents of the University of Texas System, priority 2009, dated 2019):

Assays:
[1] = system: newborn cells in the dentate gyrus; experiment: Chronic social defeat stress (CSDS): DG cellular proliferation (BrdU) and apoptosis (AC3); format: in vivo, mouse (Ghsr-null and wild-type)
From the text: FIG. 40. Effects of P7C3 on DG cellular proliferation and apoptosis following CSDS. (a) Protocol schematic. (b-e) BrdU-immunoreactive and AC3-immunoreactive cell counts in the dorsal and ventral DG of CSDS-exposed and non-CSDS-exposed mice treated with P7C3 vs. vehicle. Group sizes indicated. (f-k) Representative photomicrograph images of double-immunolabeled (BrdU and AC3) ventral DG sections. (l-q) Magnified images of immunoreactive cells (AC3, leftward-facing arrow; BrdU, rightward-facing arrow). Scale bar in (k; 100 μm) pertains to (f-k), in (q; 25 μm) pertains to (l-q). *P<0.05, **P<0.01, ***P<0.001, as compared to respective non-CSDS-exposed, vehicle-treated control group.
It was next investigated whether protecting neural precursor cells from CSDS-associated apoptosis might help protect against the depressive-like phenotype. To test this idea, P7C3 was utilized, a neuroprotective aminopropyl carbazole that elevates hippocampal neurogenesis by blocking apoptosis without affecting the proliferation rate of hippocampal neural precursor cells in the dentate gyrus. A twice-daily schedule of intraperitoneal P7C3 injections (20 mg/kg/d in divided doses) was initiated two days prior to CSDS and continued throughout the 10 day procedure for both wild-type and Ghsr-null littermates. […]
CSDS was performed similar to methods used previously in the lab (J. C. Chuang et al., Ghrelin mediates stress-induced food-reward behavior in mice. J Clin Invest 121, 2684 (2011)). […] Ethovision 3.0 software (Noldus, Leesburg, Va.) measured the duration spent in the interaction zone or in the corners. […]
Immunohistochemistry and quantification were performed as described previously (J. C. Chuang et al., Ghrelin mediates stress-induced food-reward behavior in mice. J Clin Invest 121, 2684 (2011); J. E. Malberg et al., Chronic antidepressant treatment increases neurogenesis in adult rat hippocampus. J Neurosci 20, 9104 (2000); A. A. Pieper et al., Discovery of a proneurogenic, neuroprotective chemical. Cell 142, 39 (2010)). […]

[2] = system: Ghsr-null and wild-type mice; experiment: Caloric restriction: DG apoptosis (AC3) and forced swim test; format: in vivo, mouse
From the text: FIG. 42. Effects of P7C3 on caloric restriction-induced DG cell survival and antidepressant-like behavior, as measured by FST. (a) Protocol schematic. (b, c) AC3-immunoreactive cell counts in the DG of calorie-restricted and ad libitum-fed mice treated with P7C3 vs. vehicle. (d, e) FST immobility time. Group sizes indicated. (f-k) Representative photomicrograph images of AC3-immunolabeled ventral DG sections. (l-p) Magnified images of AC3-immunoreactive cells. Scale bar in (k; 150 μm) pertains to (f-k), in (p; 25 μm) pertains to (l-p). *P<0.05, **P<0.01, as compared to respective ad libitum-fed, vehicle-treated control group. ^#P<0.05, comparing compound treatment.
Prolonged caloric restriction in wild-type mice elicits an antidepressant-like response in the FST (decreased immobility), whereas this effect is not observed in Ghsr-null mice. To investigate whether this might be related to differences in apoptosis in the DG, similar to that observed above following CSDS, Ghsr-null and wild-type littermates were exposed to ad libitum food access vs. 60% caloric restriction for 10 days. Five days prior to this exposure and throughout the 10-day feeding period, mice received either P7C3 or vehicle. On Day 16, FST performance was assessed, followed by sacrifice of the animals for quantification of AC3+ cells in the DG (FIG. 42, panel a).
The 60% calorie restriction protocol was performed as previously (M. Lutter et al., The orexigenic hormone ghrelin defends against depressive symptoms of chronic stress. Nat Neurosci 11, 752 (2008)). Mice received twice-daily injections of either P7C3 (20 mg/kg/d in divided doses) or vehicle 5 days prior to and during 10 days of calorie restriction or ad-lib feeding, replicating the injection protocol used for the CSDS studies. On Day 16, the forced swim test was performed for each mouse as done previously.

[3] = system: G93A-SOD1 mutant mice; experiment: Neurological score and weight loss in G93A-SOD1 mice, treatment from day 80; format: in vivo, mouse; conditions: daily treatment from day 80
Protocol: Neurological score was performed every day starting with compound treatment at 80 days, and was determined as follows: ‘0’=full extension of hind legs away from lateral midline when the test mouse was suspended by its tail, and could hold this for 2 seconds, suspended 2-3 times; ‘1’=collapse or partial collapse of leg extension towards lateral midline (weakness) or trembling of hind legs during tail suspension; ‘2’=toes curl under at least twice during walking of 12 inches, or any part of foot drags along cage bottom/table; ‘3’=rigid paralysis or minimal joint movement, foot not being used for forward motion; and ‘4’=mouse cannot right itself within 30 seconds from either side. Upon reaching a score of 2, animals were given a fresh Petri dish with wet food in the dish daily. When mice achieved a score of 4 for two consecutive days they were euthanized.
Mice were weighed daily starting on the day of initiation of compound administration in order to assess disease progression and readjust compound dosage. A digital balance with a step of 0.01 g was used, and mice were placed in a small plastic container on the scale when weighed. Weight was taken between 11 am and 1 pm every day.

[4] = caloric-restricted Ghsr-null mice
[5] = caloric-restricted wild-type mice

SMILES	AC3+ cells in the ventral DG after CSDS ([1]; 20 mg/kg/d i.p. in divided doses)	BrdU+ cells in the DG after CSDS ([1]; 20 mg/kg/d i.p. in divided doses, wild type and Ghsr-null mice)	BrdU or AC3 immunoreactivity in the DG ([1]; non-stressed control animals)	AC3+ cells in the DG [2, 4]	FST immobility [2, 4]	AC3+ cells in the DG [2, 5]	FST immobility [2, 5]	other measures of disease progression (neurological score or weight loss) [3]
OC(CNc1ccccc1)Cn1c2ccc(Br)cc2c2cc(Br)ccc21 (centres unmarked) [Example P7C3]	blocked by P7C3 administration	preserved normal levels of neurogenesis throughout both dorsal and ventral regions of the DG	did not significantly augment BrdU or AC3 immunoreactivity	blocked the increase in apoptosis observed after caloric restriction	significantly decrease immobility	did not further reduce the number of AC3+ cells	had no further effect on reducing immobility	
COc1cccc(NCC(F)Cn2c3ccc(Br)cc3c3cc(Br)ccc32)c1 (centres unmarked) [Example P7C3A20, N-(3-(3,6-dibromo-9H-carbazol-9-yl)-2-fluoropropyl)-3-methoxyaniline]								did not observe any delay in other measures of disease progression
